The values below come from US4966891A, “Fluorocytidine derivatives” (priority 1987, dated 1990).

The term LD50 denotes the dose expected to kill half of the subjects tested.

The conditions of series [1]: words, general knowledge; cited from earlier work.
The test system of series [2] is Meth A fibrosarcoma. Kind of series: Antitumor testing against Meth A fibrosarcoma (oral, s.c. implanted). Format: in vivo, mice. The following applies: Mus musculus, read-out: Inhibition of tumor growth; for inhibition in vivo at 1500 µmol/kg: 1.5 mmole/kg/day × 7, p.o.; for inhibition in vivo at 3000 µmol/kg: 3.0 mmole/kg/day × 7, p.o. The method, then:
(§1) Sarcoma 180 cells (2×10^6 cells) were implanted subcutaneously into mice (20-22 g) on day 0. The compounds of the present invention were administered daily from day 1 through 7 orally. The animals were sacrificed on day 14 and tumors were excised and weighed. The percent inhibition of tumor growth given in Table 1 below was calculated from the formula:
(§2) T=weight of the tumors from the treated group, C=weight of the tumors from the control group.
(§3) Meth A fibrosarcoma cells (2×10^5 cells) were implanted subcutaneously into mice (21-22 g). The testing against Meth A fibrosarcoma and the calculation of the percent inhibition of tumor growth were effected according to a manner analogous to that of the testing against Sarcoma 180.

Series [3] can be described thus: in vivo. As to conditions: mouse, po.
Series [4] has as its system Sarcoma 180. Kind of series: Comparative antitumor testing against Sarcoma 180. It counts as in vivo, murine / mice. The following applies: p.o. daily × 7, Day 14. From the text: (§4) Mice were inoculated subcutaneously with Sarcoma 180, Meth A fibrosarcoma and UV 2237 fibrosarcoma, respectively at Day 0. The mice were then orally administered with the compounds daily for 7 times from Day 1. The efficacy
(§5) was expressed as therapeutic indices (EDmax /ED50) measured at Day 14 after the tumor inoculation, where EDmax is a dose showing maximum inhibition of tumor growth.

The subject of series [5] is Meth A fibrosarcoma. Kind of series: Comparative antitumor testing against Meth A fibrosarcoma. It counts as in vivo, murine / mice. As to conditions: p.o. daily × 7, Day 14.
Description: as §4, §5

Series [6] relates to UV 2237 fibrosarcoma. Kind of series: Comparative antitumor testing against UV 2237 fibrosarcoma. Format: in vivo, murine / mice. The following applies: p.o. daily × 7, Day 14.
Description: as §4, §5

Series [7] relates to Sarcoma 180. Kind of series: Antitumor testing against Sarcoma 180 (oral, s.c. implanted). It counts as in vivo, mice. As to conditions: Mus musculus, 336 h, day 14, read-out: Inhibition of tumor growth; for inhibition in vivo at 800 µmol/kg: 0.8 mmole/kg/day × 7, p.o.; for inhibition in vivo at 1500 µmol/kg: 1.5 mmole/kg/day × 7, p.o.; for inhibition in vivo at 1100 µmol/kg: 1.1 mmole/kg/day × 7, p.o.; for inhibition in vivo at 2200 µmol/kg: 2.2 mmole/kg/day × 7, p.o. The method, then:
as §1, §2

Series [8] concerns Meth A fibrosarcoma. Kind of series: Comparative study on antitumor activity against Meth A fibrosarcoma with 5'-deoxy-5-fluorouridine. It counts as in vivo, mice. How it is done: as §3
(§6) The comparative study on antitumor activity of a representative compound (Example 3) of the present invention with 5'-deoxy-5-fluorouridine was performed according to a manner analogous to that of the antitumor testing against Meth A fibrosarcoma.

A short description of series [9]: Fecal observation on Day 8 and toxicity in the comparative Meth A study. As to conditions: for diarrhea: mouse, in vivo. How it is done:
as §6

Series [10] relates to Lewis lung carcinoma. As to conditions: mouse, in vivo, po.
Description: Mice were inoculated subcutaneously with Lewis lung carcinoma (10^6 cells) on day 0.
The compounds were administered daily for 14 times from day 1 by the p.o. route. The effective dose (ED50) at which tumor growth was inhibited by 50%, and toxic doses were determined.

In the case of `O=c1[nH]cc(F)c(=O)[nH]1` [5-fluorouracil], in series [1], the “major and dose limiting toxicities” value is “cause intestinal toxicities and immunosuppressive toxicities”.
As for `CCCCC(=O)Nc1nc(=O)n([C@@H]2O[C@H](C)[C@@H](O)[C@H]2O)cc1F` [Example 46, 5'-deoxy-5-fluoro-N^4-valerylcytidine], in [2], the inhibition in vivo at 1500 µmol/kg is 51% and the inhibition in vivo at 3000 µmol/kg is 66%. Also, in series [3], the LD50 is above 2000 mg/kg.
For the compound `C[C@H]1O[C@@H](n2cc(F)c(N)nc2=O)[C@H](O)[C@@H]1O` [5'-deoxy-5-fluorocytidine], the “Therapeutic index (EDmax/ED50), S180” value in series [4] was found to be 2.0. Besides, the “Therapeutic index (EDmax/ED50), Meth A” value in [5] is recorded as 1.2. Also, the “Therapeutic index (EDmax/ED50), UV 2237” value in series [6] was 1.0.
In the case of `C[C@H]1O[C@@H](n2cc(F)c(NC(=O)c3cccnc3)nc2=O)[C@H](O)[C@@H]1O` [Example 34], the inhibition in vivo at 1300 µmol/kg in series [2] (1.3 mmole/kg/day × 7, p.o.) amounted to 75%. Besides, the inhibition in vivo at 2600 µmol/kg in series [2] (2.6 mmole/kg/day × 7, p.o.) amounted to 92%. The same compound showed a median lethal dose (LD50) in series [3] above 2000 mg/kg.
Take `CC(C)C(=O)Nc1nc(=O)n([C@@H]2O[C@H](C)[C@@H](O)[C@H]2O)cc1F` [Example 9, 5'-deoxy-5-fluoro-N^4-isobutyrylcytidine]: the inhibition in vivo at 1400 µmol/kg in series [7] (1.4 mmole/kg/day × 7, p.o.) amounted to 76%. In series [7] (2.7 mmole/kg/day × 7, p.o.), the inhibition in vivo at 2700 µmol/kg stood at 96%. Further, the LD50 in [3] is above 2000 mg/kg.
With `C[C@H]1O[C@@H](n2cc(F)c(NC(=O)C34CC5CC(CC(C5)C3)C4)nc2=O)[C@H](O)[C@@H]1O` [Example 13, N^4-(1-adamantanecarbonyl)-5'-deoxy-5-fluorocytidine], in [7], the inhibition in vivo at 800 µmol/kg worked out at 28% and the inhibition in vivo at 1500 µmol/kg was found to be 66%.
On to `COc1ccc(C(=O)Nc2nc(=O)n([C@@H]3O[C@H](C)[C@@H](O)[C@H]3O)cc2F)cc1` [Example 24], for which, in [7], the inhibition in vivo at 1500 µmol/kg was 63%. Further, the inhibition in vivo at 3000 µmol/kg in [7] (3.0 mmole/kg/day × 7, p.o.) stood at 94%. The LD50 in series [3] was above 2000 mg/kg.
Consider `CC(C)CC(=O)Nc1nc(=O)n([C@@H]2O[C@H](C)[C@@H](O)[C@H]2O)cc1F` [Example 47, 5'-deoxy-5-fluoro-N^4-isovalerylcytidine], for which, in [2], the inhibition in vivo at 1500 µmol/kg amounted to 29% and the inhibition in vivo at 3000 µmol/kg stood at 59%. This compound displayed an LD50 in [3] above 2000 mg/kg.
For the compound `C[C@H]1O[C@@H](n2cc(F)c(=O)[nH]c2=O)[C@H](O)[C@@H]1O` [5'-deoxy-5-fluorouridine, reference compound], the “Therapeutic index (EDmax/ED50), S180” value in series [4] was 2.4. For the same compound, the “Therapeutic index (EDmax/ED50), Meth A” value in series [5] is given as 1.1. Also, the “Inhibition of tumor growth” value in series [8] (0.4 mmole/kg/day × 7) is listed as 34%; in series [8] (0.8 mmole/kg/day × 7), 31%; in series [8] (1.5 mmole/kg/day × 7), 66%; in series [8] (3.0 mmole/kg/day × 7), “toxic”. Besides, the diarrhea result in series [9] is listed as “diarrhea, which is the dose limiting factor”. The “Therapeutic index (toxic dose/ED50): 50% Thymus Shrinkage (C)” value in series [10] is recorded as 5-10. The “Therapeutic index (toxic dose/ED50): 50% reduction No. of bone marrow cells (D)” value in series [10] was 5-10. For the same compound, in series [10], the “Therapeutic index (toxic dose/ED50): Max. Dose causing no diarrhea (A)” value was 5. Also, in series [6], the “Therapeutic index (EDmax/ED50), UV 2237” value is 1.6.
As for `C[C@H]1O[C@@H](n2cc(F)c(NC(=O)/C=C/c3ccccc3)nc2=O)[C@H](O)[C@@H]1O` [Example 15, N^4-cinnamoyl-5'-deoxy-5-fluorocytidine], in series [7], the inhibition in vivo at 800 µmol/kg stood at 47% and the inhibition in vivo at 1500 µmol/kg came out at 62%.
With `CCCC(=O)Nc1nc(=O)n([C@@H]2O[C@H](C)[C@@H](O)[C@H]2O)cc1F` [Example 1, N^4-butyryl-5'-deoxy-5-fluorocytidine], the “Therapeutic index (EDmax/ED50), S180” value in series [4] was found to be 2.3. Besides, the “Therapeutic index (EDmax/ED50), Meth A” value in series [5] was determined as 2.0. Moreover, in series [7], the inhibition in vivo at 1100 µmol/kg turned out to be 56% and the inhibition in vivo at 2200 µmol/kg stood at 83%. In series [10], the “Therapeutic index (toxic dose/ED50): 50% Thymus Shrinkage (C)” value is on record as 11.3, the “Therapeutic index (toxic dose/ED50): 50% reduction No. of bone marrow cells (D)” value was found to be 10.7 and the “Therapeutic index (toxic dose/ED50): Max. Dose causing no diarrhea (A)” value is listed as above 13. Also, the “Therapeutic index (EDmax/ED50), UV 2237” value in [6] was found to be 4.8. For the same compound, in series [2], the inhibition in vivo at 1500 µmol/kg is 50% and the inhibition in vivo at 3000 µmol/kg worked out at 72%. The LD50 in series [3] was above 2000 mg/kg.
With `C[C@H]1O[C@@H](n2cc(F)c(NC(=O)C3CC3)nc2=O)[C@H](O)[C@@H]1O` [Example 11, N^4-cyclopropanecarbonyl-5'-deoxy-5-fluorocytidine], in series [7], the inhibition in vivo at 800 µmol/kg worked out at 69% and the inhibition in vivo at 1500 µmol/kg was determined as 90%.
With `CCCCCCCC(=O)Nc1nc(=O)n([C@@H]2O[C@H](C)[C@@H](O)[C@H]2O)cc1F` [Example 5, 5'-deoxy-5-fluoro-N^4-octanoylcytidine], in [7], the inhibition in vivo at 1100 µmol/kg is 62% and the inhibition in vivo at 2200 µmol/kg is 82%. Also, in series [3], the LD50 was above 2000 mg/kg.
Take `COc1cc(C(=O)Nc2nc(=O)n([C@@H]3O[C@H](C)[C@@H](O)[C@H]3O)cc2F)cc(OC)c1OC` [Example 3, 5'-deoxy-5-fluoro-N^4-(3,4,5-trimethoxybenzoyl)cytidine]: the “Inhibition of tumor growth” value in series [8] (0.4 mmole/kg/day × 7) is recorded as -27%; in series [8] (0.8 mmole/kg/day × 7), 20%; in series [8] (1.5 mmole/kg/day × 7) it was 86%; in series [8] (3.0 mmole/kg/day × 7) it was 79%. Moreover, in series [8] (words), the “antitumor activity compared with 5'-deoxy-5-fluorouridine” value is on record as “more potent in the antitumor activity”. Further, in [9], the diarrhea result is recorded as “did not cause diarrhea”. For the same compound, the “toxicity compared with 5'-deoxy-5-fluorouridine” value in series [9] (words) is “less toxic than 5'-deoxy-5-fluorouridine”. In addition, the inhibition in vivo at 1500 µmol/kg in series [2] came to 86%. Further, the inhibition in vivo at 3000 µmol/kg in series [2] was determined as 79%.
In the case of `CCCCCCCCOC(=O)Nc1nc(=O)n([C@@H]2O[C@H](C)[C@@H](O)[C@H]2O)cc1F` [Example 41, 5'-deoxy-5-fluoro-N^4-(octyloxycarbonyl)cytidine], the inhibition in vivo at 500 µmol/kg in series [7] (0.5 mmole/kg/day × 7, p.o.) is -18%. Also, the inhibition in vivo at 1500 µmol/kg in series [7] came to 36%.
